PMC5574463, “Improving ethanol yield in acetate-reducing Saccharomyces cerevisiae by cofactor engineering of 6-phosphogluconate dehydrogenase and deletion of ALD6” (Microbial Cell Factories, 2016)

What was measured:
Assay in all cases: spectrophotometric NADH formation at […] nm, cell extract
Type in all cases: biochemical
Details in all cases: 0.4 mM NAD+, 5 mM 6-phosphogluconate, 5 mM MgCl2, 50 mM Tris-HCl pH 8.0, 30 C
[1] = target: T1, B. japonicum 6pgdh (NAD+-dependent 6-phosphogluconate dehydrogenase) (Bradyrhizobium diazoefficiens, UniProt Q89FE2)
T1 construct: gene blr6759; codon-optimized gene, TPI1 promoter, integrated at GND1 locus of S. cerevisiae gnd1 gnd2 deletion strain IMX706; cell extract
T1 sequence (Q89FE2 entry or part of it): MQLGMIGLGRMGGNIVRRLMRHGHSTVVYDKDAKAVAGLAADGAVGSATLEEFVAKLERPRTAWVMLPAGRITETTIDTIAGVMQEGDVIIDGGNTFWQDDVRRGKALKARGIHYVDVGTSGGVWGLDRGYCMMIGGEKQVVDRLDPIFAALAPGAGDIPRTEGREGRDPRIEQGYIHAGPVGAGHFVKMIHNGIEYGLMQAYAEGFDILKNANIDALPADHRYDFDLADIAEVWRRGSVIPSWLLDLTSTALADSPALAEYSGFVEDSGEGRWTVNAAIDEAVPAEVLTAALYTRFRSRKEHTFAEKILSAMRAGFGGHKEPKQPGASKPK

[2] = target: T2, G. oxydans gox1705 (NAD+-preferring 6-phosphogluconate dehydrogenase) (Gluconobacter oxydans, UniProt G5EBD7)
T2 construct: codon-optimized gene, TPI1 promoter, integrated at GND1 locus of S. cerevisiae gnd1 gnd2 deletion strain IMX707; cell extract
T2 sequence (G5EBD7 whole entry): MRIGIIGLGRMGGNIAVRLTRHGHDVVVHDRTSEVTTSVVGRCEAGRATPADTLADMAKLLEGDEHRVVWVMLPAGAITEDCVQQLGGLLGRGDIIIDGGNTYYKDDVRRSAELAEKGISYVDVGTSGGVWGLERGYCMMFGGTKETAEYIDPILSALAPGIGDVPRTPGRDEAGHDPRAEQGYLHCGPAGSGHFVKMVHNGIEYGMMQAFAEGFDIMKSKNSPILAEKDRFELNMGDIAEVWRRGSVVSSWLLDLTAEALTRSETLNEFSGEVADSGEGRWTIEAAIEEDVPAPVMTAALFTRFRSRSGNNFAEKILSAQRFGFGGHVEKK

[3] = target: T3, GndA (M. flagellatus NAD+-dependent 6-phosphogluconate dehydrogenase, gndA) (Methylobacillus flagellatus, UniProt Q9L9P8)
T3 construct: codon-optimized gene, TPI1 promoter, integrated at GND1 locus of S. cerevisiae gnd1 gnd2 deletion strain IMX705; cell extract
T3 sequence (Q9L9P8 entry or part of it): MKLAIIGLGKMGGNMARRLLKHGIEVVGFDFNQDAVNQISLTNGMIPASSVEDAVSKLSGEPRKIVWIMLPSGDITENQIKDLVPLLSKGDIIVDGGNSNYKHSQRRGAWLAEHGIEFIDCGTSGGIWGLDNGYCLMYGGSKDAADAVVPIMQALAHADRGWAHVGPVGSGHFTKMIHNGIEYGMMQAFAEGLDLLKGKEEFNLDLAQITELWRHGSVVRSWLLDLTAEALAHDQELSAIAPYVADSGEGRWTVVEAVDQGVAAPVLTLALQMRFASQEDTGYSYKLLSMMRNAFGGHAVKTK

SMILES: NC(=O)c1ccc[n+]([C@@H]2O[C@H](COP(=O)(O)OP(=O)(O)OC[C@H]3O[C@@H](n4cnc5c(N)ncnc54)[C@H](O)[C@@H]3O)[C@@H](O)[C@H]2O)c1 [NAD^+]
- spectrophotometric NADH formation at 340 nm, cell extract [1]: expressing bacterial 6-PGDH genes showed high specific activities with NAD^+ as the electron acceptor
- spectrophotometric NADH formation at 340 nm, cell extract [2]: expressing bacterial 6-PGDH genes showed high specific activities with NAD^+ as the electron acceptor
- spectrophotometric NADH formation at 340 nm, cell extract [3]: expressing gndA from M. flagellatus, showed the highest in vitro NAD^+-dependent 6-PGDH activity
